Laboratory results from patent US20230204572A1, “Engineered Biosensors in an Encapsulated and Deployable System (EBEADS) for Environmental Chemical Detection” (priority 2021, published 2023).

How the values were obtained:
HbpR [1] = experiment: β-galactosidase (lacZ) reporter activity of sensing strain pBL_IMP_11 without amplification circuit in liquid culture; format: cell-based, Pseudomonas azelaica
Method: Cultures were grown overnight to saturation and then diluted to an OD600 of 0.2. Cultures were incubated at 30° C. with shaking until an OD600 of 0.7-1 before inducing cultures with 2-phenylphenol dissolved in 100% ethanol. Cultures were incubate for 3 hours or 1 mL samples were taken every hour. For experiments where 2-PP was removed after incubating for 3 hours, cultures were divided in two tubes and centrifuged. One half of the cultures were washed with 1×PBS to remove 2-phenylphenol and resuspended in fresh medium with antibiotics and without 2-phenylphenol. The other half was resuspended in their original medium without washing. Aliquots were taken every hour. […] Statistical significance of results was determined using a Student's two-tailed t-test. The limit of detection (LOD) was calculated using GraphPad Prism software and is defined as the blank plus three times the standard deviation of the blank.
In the bacterial sensor cells when exposed to 2-PP, the HbpR promoter is activated by 2-PP and HbpR protein is expressed from the transfected plasmids. […] The Limit of Detection (LOD) was calculated to be 0.863 μM for this sensor strain (FIG. 1i). […]
In order to test the response of the reporter over time, the sensor strains were treated with various amounts of 2-PP and reporter activity was measured every hour for five hours. […]

HbpR [2] = experiment: Sensor induction in hydrogel microbeads (eBEADS, amplification circuit strain, AmilCP); format: cell-based, Pseudomonas azelaica
Method: The encapsulated sensing strain's ability to detect low concentrations of 2-PP and produce a visible output signal were evaluated by time series of microscope images. Briefly, the positive control strain and 2-PP with amplification circuit strain were encapsulated in the PAA formulation as previously described above. The microbeads were placed on LB agar plates containing 0.2 mM IPTG, 100 μg/mL carbenicillin, and 50 μg/mL kanamycin supplemented with 0, 1 or 10 μM 2-phenylphenol and incubated at 30° C. Images of the sensing strain microbeads were taken at time points 0, 6, 12, 24, and 48 hours with a Nikon SMZ25 stereoscope.

aquatic organisms = conditions: EPA reregistration decision; cited from earlier work
HbpR [3] = experiment: AmilCP visual reporter of sensing strains on agar plates and in liquid culture; format: cell-based, Pseudomonas azelaica
Method: Strains containing AmilCP reporters were incubated overnight to saturation at 30° C. with shaking. Three μl of culture were pipetted onto 6 cm LB-agar plates containing 0.2 mM IPTG, 100 μg/mL carbenicillin, 50 μg/mL kanamycin, and 0 μM, 1 μM, or 10 μM of 2-phenylphenol. Images of the plates were taken at time points 0, 6, 12, 24, and 48 hours with a Nikon SMZ25 stereoscope.
After 12-24 hours on agar plates containing 10 μM 2-phenylphenol, the strains with amplification circuit produced enough AmilCP purple reporter to become just barely visible.
While the response time for the AmilCP reporter was slower than the 2 hour response time observed with the β-galactosidase reporter, use of the AmilCP reporter allowed for reporter visualization without additional equipment. When absorbance at 588 nm was used, addition of the amplification circuit in the AmilCP system allowed for detection of 2-PP at concentrations as low as 1 μM (FIG. 4B). The increase in reporter production through genetic amplification made it feasible for the living sensor to maintain a robust, visual reporter output when encapsulated.

[4] = system: mutant HbpR protein P4-A-8; conditions: 50 μM PCB-3 vs 50 μM 2-HBP
Source text: (§1) To generate biosensor systems that detect additional analytes, HbpR mutants were generated using a HbpR codon optimized library sequence (SEQ ID NO: 4) and a plasmid containing the same (SEQ ID NO: 8) and selection against different analytes.

[5] = system: mutant HbpR protein P6-F-8; conditions: 50 μM PCB-1 vs 50 μM 2-PP
Source text: as §1

[6] = system: mutant HbpR protein P6-A-8; conditions: 50 μM PCB-1 vs 50 μM 2-PP
Source text: as §1

[7] = system: mutant HbpR protein P6-B-9; conditions: 50 μM PCB-1 vs 50 μM 2-PP
Source text: as §1

[8] = agar plates, 1 μM and 10 μM 2-phenylphenol

With `Oc1ccccc1-c1ccccc1` [2-PP, 2-phenylphenol] the “Limit of Detection (LOD)” value (HbpR [1]; lacZ reporter, no amplification, three hours, blank plus three SD) was 0.863 µM, the “response time of β-galactosidase reporter” value (HbpR [1]; β-galactosidase reporter) was 2 h and the “time to purple color response of encapsulated strain” value (HbpR [2]; 10 μM 2-PP, 30° C.) was ≤ 24 h. The “response of eBEADS at less than 10 μM” value (HbpR [2]; after 48 hours, less than 10 μM 2PP) was “no response”, the “LC50 for some aquatic organisms” value (aquatic organisms) was ≥ 0.32 µg/mL and the “lowest 2-PP concentration detected with AmilCP” value (HbpR [3]; absorbance at 588 nm, with amplification circuit, 24 hours) was ≥ 1 µM. For the same compound, the “AmilCP colour after 48 hours, with amplification circuit” value (HbpR [3]; [8]) was “vibrant purple color”, the “AmilCP colour after 48 hours, without amplification circuit” value (HbpR [3]; [8]) was “faintly visible” and the “time until AmilCP purple reporter just barely visible” value (HbpR [3]; agar plates, 10 μM 2-phenylphenol, with amplification circuit) was 12 to 24 h.
In the case of `Clc1ccc(-c2ccccc2)cc1` [PCB-3, polychlorinated biphenyl-3], the “lacZ reporter expression, mutant P4-A-8” value [4] is reported as “selective lacZ reporter expression”.
For `Clc1ccccc1-c1ccccc1` [PCB-1, polychlorinated biphenyl-1], the “lacZ reporter expression, mutant P6-F-8” value [5] was “selective lacZ reporter expression”, the “lacZ reporter expression, mutant P6-A-8” value [6] was “selective lacZ reporter expression” and the “lacZ reporter expression, mutant P6-B-9” value [7] was “selective lacZ reporter expression”.
